In ChEMBL document CHEMBL1142959, “Semisynthetic approaches to laspartomycin analogues” (2007):
Converted amounts (≈) assume the structure as drawn. Positions of bridges follow the written chain, without caps; N, C: chain ends. Non-standard residues stand in square brackets, D forms with d. Residues, ends and D or L forms follow the SMILES beside them. *: point of attachment. Lauroyl = CCCCCCCCCCCC(=O)*; Pip = O=C(O)[C@@H]1CCCCN1; Dap = NC[C@H](N)C(=O)O

Legend:
Assay type in all cases: functional
Staphylococcus aureus [1] = experiment: Antimicrobial activity against methicillin-sensitive Staphylococcus aureus Smith ATCC 19636 by tube dilution method
Staphylococcus aureus [2] = experiment: Antimicrobial activity against methicillin-resistant Staphylococcus aureus ATCC 43300 by broth microdilution method
[3] = system: Staphylococcus epidermidis; experiment: Antimicrobial activity against methicillin-resistant Staphylococcus epidermidis ATCC 51625 by broth microdilution method
Staphylococcus aureus [4] = experiment: Antimicrobial activity against vancomycin-intermediate Staphylococcus aureus CDC HIP 5836 by broth microdilution method
Enterococcus faecalis = experiment: Antimicrobial activity against vancomycin-sensitive Enterococcus faecalis ATCC 29212 by broth microdilution method
Enterococcus faecium = experiment: Antimicrobial activity against vancomycin/multidrug-resistant Enterococcus faecium ATCC 51559 by broth microdilution method
Staphylococcus aureus [5] = experiment: Antimicrobial activity against methicillin-sensitive Staphylococcus aureus Smith ATCC 19636 by broth microdilution method
[6] = Staphylococcus aureus, Smith, read-out: MIC

SMILES	MIC (Staphylococcus aureus [1]; [6])	other results
CCCCCCCCCCCC(=O)N[C@@H](Cc1c[nH]c2ccccc12)C(=O)N[C@@H](CC(N)=O)C(=O)N[C@H]1CNC(=O)[C@@H]2CCCN2C(=O)[C@H]([C@@H](C)CC)NC(=O)[C@H]([C@@H](C)O)NC(=O)CNC(=O)[C@H](CC(=O)O)NC(=O)CNC(=O)[C@H](CC(=O)O)NC(=O)CNC(=O)[C@@H]2CCCCN2C1=O (Lauroyl-WN[Dap][Pip]GDGDGTIP; lactam 3-C)	8 µg/mL (≈ 5.74 µM)	
CCCCCCCCCC(=O)N[C@@H](Cc1c[nH]c2ccccc12)C(=O)N[C@@H](CC(=O)O)C(=O)N[C@H]1CNC(=O)[C@@H]2CCCN2C(=O)[C@H]([C@H](C)CC)NC(=O)[C@H]([C@@H](C)O)NC(=O)CNC(=O)[C@H](CC(=O)O)NC(=O)CNC(=O)[C@H](CC(=O)O)NC(=O)CNC(=O)[C@@H]2CCCCN2C1=O	> 64 µg/mL	
CCCCCCCCCCCCCCC(=O)N[C@@H](Cc1c[nH]c2ccccc12)C(=O)N[C@@H](CC(=O)O)C(=O)N[C@H]1CNC(=O)[C@@H]2CCCN2C(=O)[C@H]([C@H](C)CC)NC(=O)[C@H]([C@@H](C)O)NC(=O)CNC(=O)[C@H](CC(=O)O)NC(=O)CNC(=O)[C@H](CC(=O)O)NC(=O)CNC(=O)[C@@H]2CCCCN2C1=O		MIC (Staphylococcus aureus [1]): 16 µg/mL (≈ 11.1 µM)
CCCCCCCCCCCCCCC(=O)N[C@@H](C)C(=O)N[C@@H](CC(=O)O)C(=O)N[C@H]1CNC(=O)[C@@H]2CCCN2C(=O)[C@H]([C@H](C)CC)NC(=O)[C@H]([C@@H](C)O)NC(=O)CNC(=O)[C@H](CC(=O)O)NC(=O)CNC(=O)C(CC(=O)O)NC(=O)CNC(=O)[C@@H]2CCCCN2C1=O (single isomer, unassigned)	> 64 µg/mL	
CCCCCCCCCCCCCCC(=O)N[C@@H](CC(=O)O)C(=O)N[C@H]1CNC(=O)[C@@H]2CCCN2C(=O)[C@H]([C@H](C)CC)NC(=O)[C@H]([C@@H](C)O)NC(=O)CNC(=O)[C@H](CC(=O)O)NC(=O)CNC(=O)C(CC(=O)O)NC(=O)CNC(=O)[C@@H]2CCCCN2C1=O (single isomer, unassigned)		MIC (Staphylococcus aureus [1]): 2 µg/mL (≈ 1.6 µM); MIC (Staphylococcus aureus [2]): 4 µg/mL (≈ 3.2 µM); MIC [3]: 8 µg/mL (≈ 6.4 µM); MIC (Staphylococcus aureus [4]): 16 µg/mL (≈ 12.8 µM); MIC (Enterococcus faecalis): 4 µg/mL (≈ 3.2 µM); MIC (Enterococcus faecium): 4 µg/mL (≈ 3.2 µM); MIC (Staphylococcus aureus [5]): 4 µg/mL (≈ 3.2 µM)
CCCCCCCCCC(=O)N[C@@H](CC(=O)O)C(=O)N[C@H]1CNC(=O)[C@@H]2CCCN2C(=O)[C@H]([C@H](C)CC)NC(=O)[C@H]([C@@H](C)O)NC(=O)CNC(=O)[C@H](CC(=O)O)NC(=O)CNC(=O)C(CC(=O)O)NC(=O)CNC(=O)[C@@H]2CCCCN2C1=O (single isomer, unassigned)	> 64 µg/mL	
CCCCCCCCCCCCCCCCS(=O)(=O)N[C@@H](Cc1c[nH]c2ccccc12)C(=O)N[C@@H](CC(=O)O)C(=O)N[C@H]1CNC(=O)[C@@H]2CCCN2C(=O)[C@H]([C@H](C)CC)NC(=O)[C@H]([C@@H](C)O)NC(=O)CNC(=O)[C@H](CC(=O)O)NC(=O)CNC(=O)[C@H](CC(=O)O)NC(=O)CNC(=O)[C@@H]2CCCCN2C1=O	4 µg/mL (≈ 2.67 µM)	
CC[C@@H](C)[C@@H]1NC(=O)[C@H]([C@@H](C)O)NC(=O)CNC(=O)[C@H](CC(=O)O)NC(=O)CNC(=O)C(CC(=O)O)NC(=O)CNC(=O)[C@@H]2CCCCN2C(=O)[C@@H](NC(=O)[C@H](CC(=O)O)NC(=O)CCCCCCCCCCOc2ccccc2)CNC(=O)[C@@H]2CCCN2C1=O (single isomer, unassigned)	> 64 µg/mL	
CCCCCCCCCCCCCCC(=O)N[C@@H](CCCCN)C(=O)N[C@@H](CC(=O)O)C(=O)N[C@H]1CNC(=O)[C@@H]2CCCN2C(=O)[C@H]([C@H](C)CC)NC(=O)[C@H]([C@@H](C)O)NC(=O)CNC(=O)[C@H](CC(=O)O)NC(=O)CNC(=O)C(CC(=O)O)NC(=O)CNC(=O)[C@@H]2CCCCN2C1=O (single isomer, unassigned)	16 µg/mL (≈ 11.6 µM)	
CCCCCCCCCCCCCCC(=O)N[C@H](Cc1ccccc1)C(=O)N[C@@H](CC(=O)O)C(=O)N[C@H]1CNC(=O)[C@@H]2CCCN2C(=O)[C@H]([C@H](C)CC)NC(=O)[C@H]([C@@H](C)O)NC(=O)CNC(=O)[C@H](CC(=O)O)NC(=O)CNC(=O)C(CC(=O)O)NC(=O)CNC(=O)[C@@H]2CCCCN2C1=O (single isomer, unassigned)	4 µg/mL (≈ 2.86 µM)	
CCCCCCCCCCCCCCC(=O)N[C@@H](Cc1c[nH]c2ccccc12)C(=O)N[C@@H](CC(=O)O)C(=O)N[C@H]1CNC(=O)[C@@H]2CCCN2C(=O)[C@H]([C@H](C)CC)NC(=O)[C@H]([C@@H](C)O)NC(=O)CNC(=O)[C@H](CC(=O)O)NC(=O)CNC(=O)C(CC(=O)O)NC(=O)CNC(=O)[C@@H]2CCCCN2C1=O (single isomer, unassigned)	8 µg/mL (≈ 5.57 µM)	
CCCCCCCCCCCCCCC(=O)N[C@@H](CCC(=O)O)C(=O)N[C@H]1CNC(=O)[C@@H]2CCCN2C(=O)[C@H]([C@H](C)CC)NC(=O)[C@H]([C@@H](C)O)NC(=O)CNC(=O)[C@H](CC(=O)O)NC(=O)CNC(=O)C(CC(=O)O)NC(=O)CNC(=O)[C@@H]2CCCCN2C1=O (single isomer, unassigned)	64 µg/mL (≈ 50.7 µM)	
CCCCCCCCCCCCCCNC(=O)N[C@@H](Cc1ccccc1)C(=O)N[C@@H](CC(N)=O)C(=O)N[C@H]1CNC(=O)[C@@H]2CCCN2C(=O)[C@H]([C@H](C)CC)NC(=O)[C@H]([C@@H](C)O)NC(=O)CNC(=O)[C@H](CC(=O)O)NC(=O)CNC(=O)[C@H](CC(=O)O)NC(=O)CNC(=O)[C@@H]2CCCCN2C1=O	4 µg/mL (≈ 2.84 µM)	MIC (Staphylococcus aureus [2]): 4 µg/mL (≈ 2.84 µM); MIC [3]: 4 µg/mL (≈ 2.84 µM); MIC (Staphylococcus aureus [4]): 8 µg/mL (≈ 5.67 µM); MIC (Enterococcus faecalis): 2 µg/mL (≈ 1.42 µM); MIC (Enterococcus faecium): 8 µg/mL (≈ 5.67 µM); MIC (Staphylococcus aureus [5]): 4 µg/mL (≈ 2.84 µM)
CCCCCCCCCCCCCCC(=O)N[C@@H](Cc1ccccc1)C(=O)N[C@@H](CC(=O)O)C(=O)N[C@H]1CNC(=O)[C@@H]2CCCN2C(=O)[C@H]([C@H](C)CC)NC(=O)[C@H]([C@@H](C)O)NC(=O)CNC(=O)[C@H](CC(=O)O)NC(=O)CNC(=O)C(CC(=O)O)NC(=O)CNC(=O)[C@@H]2CCCCN2C1=O (single isomer, unassigned)	4 µg/mL (≈ 2.86 µM)	MIC (Staphylococcus aureus [2]): 4 µg/mL (≈ 2.86 µM); MIC [3]: 4 µg/mL (≈ 2.86 µM); MIC (Staphylococcus aureus [4]): 32 µg/mL (≈ 22.9 µM); MIC (Enterococcus faecalis): 4 µg/mL (≈ 2.86 µM); MIC (Enterococcus faecium): 8 µg/mL (≈ 5.73 µM); MIC (Staphylococcus aureus [5]): 4 µg/mL (≈ 2.86 µM)
CCCCCCCCCCCCOC(=O)N[C@@H](CC(N)=O)C(=O)N[C@H]1CNC(=O)[C@@H]2CCCN2C(=O)[C@H]([C@H](C)CC)NC(=O)[C@H]([C@@H](C)O)NC(=O)CNC(=O)[C@H](CC(=O)O)NC(=O)CNC(=O)[C@H](CC(=O)O)NC(=O)CNC(=O)[C@@H]2CCCCN2C1=O	8 µg/mL (≈ 6.47 µM)	
CCCCCCCCCCCCCCC(=O)N[C@@H](Cc1c[nH]c2ccccc12)C(=O)N[C@H](CC(=O)O)C(=O)N[C@H]1CNC(=O)[C@@H]2CCCN2C(=O)[C@H]([C@H](C)CC)NC(=O)[C@H]([C@@H](C)O)NC(=O)CNC(=O)[C@H](CC(=O)O)NC(=O)CNC(=O)C(CC(=O)O)NC(=O)CNC(=O)[C@@H]2CCCCN2C1=O (single isomer, unassigned)	> 64 µg/mL	
CCCCCCCCCCCCS(=O)(=O)N[C@@H](CC(N)=O)C(=O)N[C@H]1CNC(=O)[C@@H]2CCCN2C(=O)[C@H]([C@H](C)CC)NC(=O)[C@H]([C@@H](C)O)NC(=O)CNC(=O)[C@H](CC(=O)O)NC(=O)CNC(=O)[C@H](CC(=O)O)NC(=O)CNC(=O)[C@@H]2CCCCN2C1=O	16 µg/mL (≈ 12.7 µM)	
CCCCCCCCCCCCCCC(=O)N[C@@H](CC(=O)O)C(=O)N[C@H]1CNC(=O)[C@@H]2CCCN2C(=O)[C@H]([C@H](C)CC)NC(=O)[C@H]([C@@H](C)O)NC(=O)CNC(=O)[C@H](CC(=O)O)NC(=O)CNC(=O)[C@H](CC(=O)O)NC(=O)CNC(=O)[C@@H]2CCCCN2C1=O		MIC (Staphylococcus aureus [1]): >128 µg/mL
CCCCCCCCCCCCCCCCS(=O)(=O)N[C@@H](Cc1c[nH]c2ccccc12)C(=O)N[C@H]1CNC(=O)[C@@H]2CCCN2C(=O)[C@H]([C@H](C)CC)NC(=O)[C@H]([C@@H](C)O)NC(=O)CNC(=O)[C@H](CC(=O)O)NC(=O)CNC(=O)[C@H](CC(=O)O)NC(=O)CNC(=O)[C@@H]2CCCCN2C1=O	> 64 µg/mL	
CCCCCCCCCCc1ccc(C(=O)N[C@@H](CC(=O)O)C(=O)N[C@H]2CNC(=O)[C@@H]3CCCN3C(=O)[C@H]([C@H](C)CC)NC(=O)[C@H]([C@@H](C)O)NC(=O)CNC(=O)[C@H](CC(=O)O)NC(=O)CNC(=O)C(CC(=O)O)NC(=O)CNC(=O)[C@@H]3CCCCN3C2=O)cc1 (single isomer, unassigned)	1 µg/mL (≈ 0.788 µM)	
CCCCCCCCCCCCCCCCNC(=O)N[C@@H](CC(N)=O)C(=O)N[C@H]1CNC(=O)[C@@H]2CCCN2C(=O)[C@H]([C@H](C)CC)NC(=O)[C@H]([C@@H](C)O)NC(=O)CNC(=O)[C@H](CC(=O)O)NC(=O)CNC(=O)[C@H](CC(=O)O)NC(=O)CNC(=O)[C@@H]2CCCCN2C1=O	2 µg/mL (≈ 1.55 µM)	
CCCCCCCCCCCCCCC(=O)NCC(=O)N[C@@H](CC(=O)O)C(=O)N[C@H]1CNC(=O)[C@@H]2CCCN2C(=O)[C@H]([C@H](C)CC)NC(=O)[C@H]([C@@H](C)O)NC(=O)CNC(=O)[C@H](CC(=O)O)NC(=O)CNC(=O)C(CC(=O)O)NC(=O)CNC(=O)[C@@H]2CCCCN2C1=O (single isomer, unassigned)	> 64 µg/mL	
CCCCCCCCCCCCCCC(=O)N[C@H]1CNC(=O)[C@@H]2CCCN2C(=O)[C@H]([C@H](C)CC)NC(=O)[C@H]([C@@H](C)O)NC(=O)CNC(=O)[C@H](CC(=O)O)NC(=O)CNC(=O)C(CC(=O)O)NC(=O)CNC(=O)[C@@H]2CCCCN2C1=O (single isomer, unassigned)	> 64 µg/mL	
CC[C@@H](C)[C@@H]1NC(=O)[C@H]([C@@H](C)O)NC(=O)CNC(=O)[C@H](CC(=O)O)NC(=O)CNC(=O)[C@H](CC(=O)O)NC(=O)CNC(=O)[C@@H]2CCCCN2C(=O)[C@@H](NC(=O)[C@H](CC(=O)O)NC(=O)/C=C/CCCCCCCCCC(C)C)CNC(=O)[C@@H]2CCCN2C1=O [LASPARTOMYCIN C]	2 µg/mL (≈ 1.6 µM)	
CCCCCCCCCCCCc1ccc(C(=O)N[C@@H](CC(=O)O)C(=O)N[C@H]2CNC(=O)[C@@H]3CCCN3C(=O)[C@H]([C@H](C)CC)NC(=O)[C@H]([C@@H](C)O)NC(=O)CNC(=O)[C@H](CC(=O)O)NC(=O)CNC(=O)C(CC(=O)O)NC(=O)CNC(=O)[C@@H]3CCCCN3C2=O)cc1 (single isomer, unassigned)	2 µg/mL (≈ 1.54 µM)	
